From patent US7785564B2, “Design and synthesis of renal dipeptidase inhibitors” (The Johns Hopkins University, priority 2002, dated 2010)
Where two headings read alike, the source gives them in different places.

Legend:
Renal Dipeptidase (RDP) [1] = target: T1, Renal Dipeptidase (RDP) (Homo sapiens, UniProt P16444); details: for IC50: read-out: RDP inhibition activity IC50, colon cancer lysate, Table 3; for RDP inhibitor potency in words / activity of Z isomers relative to their E counterparts (9, 11 and 13): human colon cancer lysate, numbering of Table 3
Protocol: (§1) The RDP inhibition activity of these compounds was determined using crude lysates prepared from human colon cancers. The results are expressed as the concentration of inhibitor needed to inhibit enzyme activity by 50% (IC50). Human colon cancer extracts were prepared by homogenizing one cm^3 of frozen colon tissue in 10 ml of 20 mM Tris, pH 8.0, 10 μM ZnCl2, 0.1% Triton X 100. The extract was clarified by centrifugation at 13,000×g for 5 minutes at 4° C. and, for each measurement, 20 μl was diluted into 158 μl of 20 mM Tris, pH 8.0, 10 μM ZnCl2. 20 μl of the synthesised compounds were added to each reaction to obtain final concentrations ranging from 0 to 10 μM. The mixtures were incubated at room temperature for 30 minutes to allow enzyme-inhibitor complex formation, and the reactions were initiated by the addition of 2 μl of 1 mM substrate (εDNP-L-Lys-D-Amp).^14 While incubating at 37° C., fluorescence (λex=320 nm, λem=405 nm) measurements were determined at 30 sec intervals and the relative reaction rate was taken as the rate of increase of fluorescence over time.

Renal Dipeptidase (RDP) [2] = target: T2, Renal Dipeptidase (RDP) (Homo sapiens, UniProt P16444); assay: RDP inhibition assay (IC50), small intestine lysate, fluorogenic substrate ε-DNP-L-Lys-D-Amp; assay type: biochemical
T2 construct: from tissue; host or cells: small intestine lysate
T2 sequence (P16444 17-385): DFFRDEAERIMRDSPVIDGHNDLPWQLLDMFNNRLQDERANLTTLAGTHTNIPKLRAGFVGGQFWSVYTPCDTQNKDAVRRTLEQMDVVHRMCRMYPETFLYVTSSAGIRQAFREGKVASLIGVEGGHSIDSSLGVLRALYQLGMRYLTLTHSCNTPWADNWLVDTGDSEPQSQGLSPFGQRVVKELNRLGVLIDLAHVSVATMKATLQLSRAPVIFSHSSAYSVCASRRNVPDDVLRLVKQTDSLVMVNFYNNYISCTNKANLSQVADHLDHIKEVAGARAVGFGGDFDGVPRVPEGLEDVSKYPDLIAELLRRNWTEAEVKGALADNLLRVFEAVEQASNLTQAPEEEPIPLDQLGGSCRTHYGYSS
Protocol: Inhibitors were diluted from MeOH stock solution in water. […] After mixing incubated at 37° C. Florescence was measured at 30 sec intervals. The IC50 values were determined using small Intestine lysate.

Renal Dipeptidase (RDP) [3] = target: T1, Renal Dipeptidase (RDP); details: read-out: RDP inhibition Ki; colon cancer lysate; Table 1
Protocol: The assay buffer was prepared by mixing 20 mM Tris, pH=8, 10 μM ZnCl2. 1 mM substrate (ε-DNP-L-Lys-D-Amp) stock solution in DMSO was prepared. Inhibitors were diluted from MeOH stock solution in water. […] of lysate was taken in 150 μl of assay buffer and 20 μl of inhibitor was added. The mixture was incubated at room temperature for 30 min. It was then transferred to plate containing 2 μl/well, 1 mM substrate in DMSO. After mixing incubated at 37° C. Florescence was measured at 30 sec intervals. The IC50 values were determined using small Intestine lysate. Ki values were determined for selected compounds using colon cancer lysate.
as §1

Structure (SMILES)	IC50 (Renal Dipeptidase (RDP) [1]) [nM]	IC50 (Renal Dipeptidase (RDP) [2]; Table 1) [nM]	Ki (Renal Dipeptidase (RDP) [3]) [nM]	RDP inhibitor potency in words (Renal Dipeptidase (RDP) [1])	activity of Z isomers relative to their E counterparts (9, 11 and 13) (Renal Dipeptidase (RDP) [1])	IC50 (Renal Dipeptidase (RDP) [2]; Table 2) [nM]
NC(CC1CCCCC1)P(=O)(O)C/C(=C/c1ccc(F)cc1)C(=O)O (centres unmarked) [compound 9]	300	15	0.72	–	–	–
NC(CC1CCCCC1)P(=O)(O)C/C(=C\c1ccc(F)cc1)C(=O)O (centres unmarked) [compound 8]	5.5	5	0.6	potent RDP inhibitors	significantly more active	–
NC(CC1CCCCC1)P(=O)(O)C/C(=C\c1ccc(Br)cc1)C(=O)O (centres unmarked) [compound 10]	8	6	0.72	potent RDP inhibitors	significantly more active	–
NC(CC1CCCCC1)P(=O)(O)CC(=Cc1ccc(I)cc1)C(=O)O (mixture of isomers) [compound 15]	45	250	10	far less active	–	–
NC(CC1CCCCC1)P(=O)(O)C/C(=C\c1ccc(C(F)(F)F)cc1)C(=O)O (centres unmarked) [compound 18]	–	–	–	–	–	10
CCN(CC)c1ccc(/C=C(\CP(=O)(O)C(N)CC2CCCCC2)C(=O)O)cc1 (centres unmarked) [compound 26]	–	–	–	–	–	70
NC(CC1CCCCC1)P(=O)(O)C/C(=C/c1ccccc1)C(=O)O (centres unmarked) [compound 7]	–	40	1.6	–	–	–
NC(CC1CCCCC1)P(=O)(O)C/C(=C/c1ccc(Br)cc1)C(=O)O (centres unmarked) [compound 11]	25	30	2.4	–	–	–
NC(CC1CCCCC1)P(=O)(O)C/C(=C\c1ccccc1)C(=O)O (centres unmarked) [compound 6]	–	28	1.12	–	–	–
NC(CC1CCCCC1)P(=O)(O)CC(=Cc1ccc(I)cc1)C(=O)O (mixture of isomers) [compound 14]	–	45	3	–	–	–
CCN(CC)c1ccc(/C=C(/CP(=O)(O)C(N)CC2CCCCC2)C(=O)O)cc1 (centres unmarked) [compound 27]	–	–	–	–	–	150
NC(CC1CCCCC1)P(=O)(O)C/C(=C\c1ccc(I)cc1)C(=O)O (centres unmarked) [compound 12]	3.5	8	0.6	potent RDP inhibitors	significantly more active	–
NC(CC1CCCCC1)P(=O)(O)C/C(=C/c1ccc(C(F)(F)F)cc1)C(=O)O (centres unmarked) [compound 19]	–	–	–	–	–	200
NC(CC1CCCCC1)P(=O)(O)C/C(=C/c1ccc(I)cc1)C(=O)O (centres unmarked) [compound 13]	60	25	2	–	–	–
